According to US10704079B2, “Methods for the detection of beta-lactamases in a sample” (priority 2007, dated 2020):
Converted amounts (≈) assume the structure as drawn. Read-outs that look alike come from different tables or passages of the source.

Legend:
E. coli (ESCCOL) strains = experiment: MIC assays of CTX, CCX, CAZ, CCZ, microbroth dilution (CLSI); assay type: cell-based; conditions: Escherichia coli
Protocol: (§1) MIC Assays of CTX (cefotaxime), […] (cefotaxime/clavulanic acid), CAZ (ceftazidime) and CCZ (ceftazidime/clavulanic acid) were performed by microbroth dilution method according to the CLSI (Clinical and Laboratory Standards Institute) standard.

[1] = system: Klebsiella pneumoniae (KLEPNEP) strains; experiment: as above; assay type: cell-based
Protocol: as §1

E. coli strains [2] = experiment: Cefoxitin MIC assay, microbroth dilution (CLSI); assay type: cell-based
Protocol: Cefoxitin MIC Assay were performed by microbroth dilution method according to the CLSI (Clinical and Laboratory Standards Institute) standard.

E. coli strains [3] = experiment: Imipenem MIC assay, microbroth dilution (CLSI); assay type: cell-based; conditions: Escherichia coli
Protocol: (§2) Imipenem MIC Assay was performed by microbroth dilution method according to the CLSI (Clinical and Laboratory Standards Institute) standard.

[4] = system: Klebsiella oxytoca strains; experiment: Imipenem MIC assay, microbroth dilution (CLSI); assay type: cell-based
Protocol: as §2

[5] = system: Klebsiella pneumoniae strains; experiment: Imipenem MIC assay, microbroth dilution (CLSI); assay type: cell-based; conditions: for MIC: Klebsiella pneumoniae
Protocol: as §2
(§3) Imipenem MIC Assay were performed by microbroth dilution method according to the CLSI (Clinical and Laboratory Standards Institute) standard.

[6] = system: Pseudomonas aeruginosa (PSEAER) strains; experiment: Imipenem MIC assay, microbroth dilution (CLSI); assay type: cell-based; conditions: PSEAER strain 6 of Table 16 (MBL)
Protocol: as §3

E. coli strains [7] = experiment: Lysis testing on Phoenix panel, nitrocefin hydrolysis rate; assay type: cell-based; design: unit not given here; conditions: without vs with lysis reagent
Protocol: (§4) Stock solutions with nitrocefin, trehalose, and/or reagents used to lyse the bacterial cells in pH6 MES buffer were prepared and dispensed into wells on the bottom part of Phoenix™ panel (BD, USA), with one stock solution in one well. Panels were then dried in an oven for approximately 30 min at approximately 70° C. The top part of Phoenix panel was then attached to the bottom part forming a panel system ready for inoculation. The concentrations of reagents after rehydration following Phoenix panel inoculation were 3 mg/ml lysozyme, 1 mM EDTA, and 1% trehalose in 0.1M pH6 MES buffer.
(§5) Representative strains of bacteria, such as E. coli and Klebsiella pneumoniae, were each streaked on a Trypticase™ Soy Agar with 5% Sheep Blood agar plate (BD, USA) and the plates were incubated at 35° C. for 18 hours. Afterwards, colonies from pure culture on each plate were inoculated into BD Phoenix ID broth (BD, USA) and adjusted to a desired turbidity of approximately 0.5 MacFarland. The bacterial cell suspension was then poured into the ID side of the Phoenix panels that were specifically made for cell lysis testing. Once inoculated, the panel was loaded into Phoenix instrument, where nitrocefin hydrolysis rate was monitored by colorimetric signals changes every 20 minutes for 16 hours.

[8] = system: Klebsiella pneumoniae strains; experiment: as above; assay type: cell-based; design: unit not given here; conditions: without vs with lysis reagent
Protocol: as §4, §5

ESBLs = experiment: Beta-lactamase inhibition at certain concentrations; assay type: biochemical
[9] = system: original-spectrum beta-lactamases (OSBLs); experiment: as above; assay type: biochemical
class A beta-lactamases = experiment: as above; assay type: biochemical
class C beta-lactamases = experiment: as above; assay type: biochemical
[10] = ESCCOL strain 2 of Table 20 (ESBL), read-out: MIC
[11] = ESCCOL strain 3 of Table 20 (OSBL), read-out: MIC
[12] = ESCCOL strain 4 of Table 20 (OSBL), read-out: MIC
[13] = ESCCOL strain 5 of Table 20 (WT), read-out: MIC
[14] = KLEPNEP strain 7 of Table 20 (ESBL), read-out: MIC
[15] = KLEPNEP strain 8 of Table 20 (OSBL), read-out: MIC
[16] = KLEPNEP strain 9 of Table 20 (OSBL), read-out: MIC
[17] = KLEPNEP strain 10 of Table 20 (WT), read-out: MIC

CC(C)(O/N=C(\C(=O)N[C@@H]1C(=O)N2C(C(=O)[O-])=C(C[n+]3ccccc3)CS[C@H]12)c1csc(N)n1)C(=O)O [CAZ, ceftazidime]
MIC (E. coli (ESCCOL) strains): > 128 µg/mL
MIC (E. coli (ESCCOL) strains; [10]): 16 µg/mL (≈ 29.3 µM)
MIC (E. coli (ESCCOL) strains; [11]): ≤ 0.25 µg/mL
MIC (E. coli (ESCCOL) strains; [12]): ≤ 0.25 µg/mL
MIC (E. coli (ESCCOL) strains; [13]): ≤ 0.25 µg/mL
MIC [1]: > 128 µg/mL
MIC [1, 14]: 8 µg/mL (≈ 14.6 µM)
MIC [1, 15]: ≤ 0.25 µg/mL
MIC [1, 16]: ≤ 0.25 µg/mL
MIC [1, 17]: ≤ 0.25 µg/mL

CO/N=C(\C(=O)N[C@@H]1C(=O)N2C(C(=O)O)=C(COC(C)=O)CS[C@H]12)c1csc(N)n1 [CTX, cefotaxime]
MIC (E. coli (ESCCOL) strains; ESCCOL strain 1 of Table 20 (ESBL), read-out: MIC): 32 µg/mL (≈ 70.3 µM)
MIC (E. coli (ESCCOL) strains; [10]): > 64 µg/mL
MIC (E. coli (ESCCOL) strains; [11]): ≤ 0.25 µg/mL
MIC (E. coli (ESCCOL) strains; [12]): ≤ 0.25 µg/mL
MIC (E. coli (ESCCOL) strains; [13]): ≤ 0.25 µg/mL
MIC ([1]; KLEPNEP strain 6 of Table 20 (ESBL), read-out: MIC): > 64 µg/mL
MIC [1, 14]: > 64 µg/mL
MIC [1, 15]: ≤ 0.25 µg/mL
MIC [1, 16]: ≤ 0.25 µg/mL
MIC [1, 17]: 0.5 µg/mL (≈ 1.1 µM)

CO[C@@]1(NC(=O)Cc2cccs2)C(=O)N2C(C(=O)O)=C(COC(N)=O)CS[C@@H]21 [Cefoxitin]
Cefoxitin MIC (E. coli strains [2]; E. coli strain 1 of Table 18 (WT)): ≤ 4 µg/mL
Cefoxitin MIC (E. coli strains [2]; E. coli strain 2 of Table 18 (OSBL, C-plasmid)): > 32 µg/mL
Cefoxitin MIC (E. coli strains [2]; E. coli strain 3 of Table 18 (OSBL, C-chromo)): > 32 µg/mL
Cefoxitin MIC (E. coli strains [2]; E. coli strain 4 of Table 18 (OSBL)): 32 µg/mL
Cefoxitin MIC (E. coli strains [2]; E. coli strain 5 of Table 18 (ESBL, C-plasmid)): > 32 µg/mL
Cefoxitin MIC (E. coli strains [2]; E. coli strain 6 of Table 18 (ESBL, C-chromo)): =32
Cefoxitin MIC (E. coli strains [2]; E. coli strain 7 of Table 18 (ESBL)): =8
Cefoxitin MIC (E. coli strains [2]; E. coli strain 8 of Table 18 (C-chromo)): > 32 µg/mL
Cefoxitin MIC (E. coli strains [2]; E. coli strain 9 of Table 18 (Carbapenemase)): > 32 µg/mL
Cefoxitin MIC (E. coli strains [2]; E. coli strain 10 of Table 18 (C-plasmid)): > 32 µg/mL
Cefoxitin MIC (E. coli strains [2]; E. coli strain 11 of Table 18 (OSBL, C-plasmid)): > 32 µg/mL

C[C@@H](O)[C@H]1C(=O)N2C(C(=O)O)=C(SCCN=CN)C[C@H]12 [Imipenem]
MIC (E. coli strains [3]; E. coli strain 1 of Table 8 (C-chromo)): ≤ 2 µg/mL
MIC (E. coli strains [3]; E. coli strain 3 of Table 8 (Carb (KPC))): 16 µg/mL (≈ 53.4 µM)
MIC (E. coli strains [3]; E. coli strain 4 of Table 8 (ESBL, C-chromo)): ≤ 2 µg/mL
MIC (E. coli strains [3]; E. coli strain 5 of Table 8 (IRT, C-chromo)): ≤ 2 µg/mL
MIC (E. coli strains [3]; E. coli strain 6 of Table 8 (OSBL, Carb)): 8 µg/mL (≈ 26.7 µM)
MIC (E. coli strains [3]; E. coli strain 8 of Table 8 (WT)): ≤ 0.25 µg/mL
MIC (E. coli strains [3]; E. coli strain 9 of Table 8 (WT)): ≤ 2 µg/mL
MIC (E. coli strains [3]; E. coli strain 10 of Table 8 (OSBL, C-chromo)): ≤ 2 µg/mL
MIC (E. coli strains [3]; E. coli strain 11 of Table 8 (ESBL, C)): ≤ 2 µg/mL
Imipenem MIC ([4]; Klebsiella oxytoca strain 1 of Table 12 (K1-high)): ≤ 2 µg/mL
Imipenem MIC ([4]; Klebsiella oxytoca strain 2 of Table 12 (OSBL, K1-high)): ≤ 2 µg/mL
Imipenem MIC ([4]; Klebsiella oxytoca strain 3 of Table 12 (OSBL, K1-high, Carb)): > 16 µg/mL
Imipenem MIC ([4]; Klebsiella oxytoca strain 4 of Table 12 (WT)): ≤ 2 µg/mL
Imipenem MIC ([5]; KLEPENEP strain 5 of Table 16 (WT)): ≤ 2 µg/mL
Imipenem MIC ([5]; KLEPNEP strain 1 of Table 14 (ESBL, MBL)): = 4
Imipenem MIC ([5]; KLEPNEP strain 1 of Table 16 (ESBL, MBL)): 4 µg/mL
Imipenem MIC ([5]; KLEPNEP strain 2 of Table 14 (WT)): ≤ 2 µg/mL
Imipenem MIC ([5]; KLEPNEP strain 2 of Table 16 (MBL)): > 16 µg/mL
Imipenem MIC ([5]; KLEPNEP strain 3 of Table 14 (OSBL, Carbapenemase)): > 16 µg/mL
Imipenem MIC ([5]; KLEPNEP strain 3 of Table 16 (ESBL, Carbapenemase)): = 8
Imipenem MIC ([5]; KLEPNEP strain 4 of Table 14 (ESBL, C-plasmid)): ≤ 2 µg/mL
Imipenem MIC ([5]; KLEPNEP strain 4 of Table 16 (ESBL, C-plasmid)): ≤ 2 µg/mL
Imipenem MIC ([5]; Klebsiella pneumoniae strain 1 of Table 10 (C-plasmid)): <=2 μg/ml
Imipenem MIC ([5]; Klebsiella pneumoniae strain 6 of Table 10 (ESBL, C-plasmid)): <=2 μg/ml
Imipenem MIC ([5]; Klebsiella pneumoniae strain 8 of Table 10 (OSBL, C-plasmid)): <=2 μg/ml
Imipenem MIC ([5]; Klebsiella pneumoniae strain 11 of Table 10 (OSBL, C-plasmid)): <=2 μg/ml
Imipenem MIC ([5]; Klebsiella pneumoniae strain 14 of Table 10 (ESBL, C-plasmid)): <=2 μg/ml
MIC ([5]; Klebsiella pneumoniae strain 2 of Table 10 (ESBL, MBL)): 4 µg/mL (≈ 13.4 µM)
MIC ([5]; Klebsiella pneumoniae strain 3 of Table 10 (ESBL, C)): ≤ 2 µg/mL
MIC ([5]; Klebsiella pneumoniae strain 4 of Table 10 (ESBL, Carb (KPC))): 8 µg/mL (≈ 26.7 µM)
MIC ([5]; Klebsiella pneumoniae strain 7 of Table 10 (WT)): ≤ 2 µg/mL
MIC ([5]; Klebsiella pneumoniae strain 9 of Table 10 (OSBL, carb)): > 16 µg/mL
MIC ([5]; Klebsiella pneumoniae strain 10 of Table 10 (WT)): ≤ 2 µg/mL
MIC ([5]; Klebsiella pneumoniae strain 12 of Table 10 (MBL)): > 16 µg/mL
MIC ([5]; Klebsiella pneumoniae strain 13 of Table 10 (ESBL, MBL)): 4 µg/mL (≈ 13.4 µM)
MIC ([5]; Klebsiella pneumoniae strain 15 of Table 10 (Carb(KPC))): 8 µg/mL (≈ 26.7 µM)
MIC ([5]; Klebsiella pneumoniae strain 16 of Table 10 (ESBL, Carb(KPC))): 8 µg/mL (≈ 26.7 µM)
Imipenem MIC [6]: > 16 µg/mL

O=C(Cc1cccs1)N[C@@H]1C(=O)N2C(C(=O)O)=C(/C=C/c3ccc([N+](=O)[O-])cc3[N+](=O)[O-])CS[C@H]12 [NCF, 3-[2,4-dinitrostyryl]-7-(2-thienylacetamido]3-cephem-4-carobxylic acid]
NCF activity (maximum nitrocefin hydrolysis rate within 10 hrs) (E. coli strains [7]; E. coli sample 1, intracellular beta-lactamase +): 1.9
NCF activity (maximum nitrocefin hydrolysis rate within 10 hrs) (E. coli strains [7]; E. coli sample 2, intracellular beta-lactamase +): 2.1
NCF activity (maximum nitrocefin hydrolysis rate within 10 hrs) (E. coli strains [7]; E. coli sample 3, intracellular beta-lactamase +): 2.3
NCF activity (maximum nitrocefin hydrolysis rate within 10 hrs) (E. coli strains [7]; E. coli sample 4, intracellular beta-lactamase +): 1.9
NCF activity (maximum nitrocefin hydrolysis rate within 10 hrs) (E. coli strains [7]; E. coli sample 5, intracellular beta-lactamase +): 8.2
NCF activity (maximum nitrocefin hydrolysis rate within 10 hrs) (E. coli strains [7]; E. coli sample 6, intracellular beta-lactamase +): 7.2
NCF activity (maximum nitrocefin hydrolysis rate within 10 hrs) (E. coli strains [7]; E. coli sample 7, intracellular beta-lactamase +): 6.8
NCF activity (maximum nitrocefin hydrolysis rate within 10 hrs) (E. coli strains [7]; E. coli sample 8, intracellular beta-lactamase −): 1.7
NCF activity (maximum nitrocefin hydrolysis rate within 10 hrs) ([8]; Klebsiella pneumoniae sample 9, intracellular beta-lactamase +): 1.3
NCF activity (maximum nitrocefin hydrolysis rate within 10 hrs) ([8]; Klebsiella pneumoniae sample 10, intracellular beta-lactamase +): 3.3
NCF activity (maximum nitrocefin hydrolysis rate within 10 hrs) ([8]; Klebsiella pneumoniae sample 11, intracellular beta-lactamase +): 3.9
NCF activity (maximum nitrocefin hydrolysis rate within 10 hrs) ([8]; Klebsiella pneumoniae sample 12, intracellular beta-lactamase +): 2.6
NCF activity (maximum nitrocefin hydrolysis rate within 10 hrs) ([8]; Klebsiella pneumoniae sample 13, intracellular beta-lactamase +): 6.7
NCF activity (maximum nitrocefin hydrolysis rate within 10 hrs) ([8]; Klebsiella pneumoniae sample 14, intracellular beta-lactamase +): 7.5
NCF activity (maximum nitrocefin hydrolysis rate within 10 hrs) ([8]; Klebsiella pneumoniae sample 15, intracellular beta-lactamase +): 9.1
NCF activity (maximum nitrocefin hydrolysis rate within 10 hrs) ([8]; Klebsiella pneumoniae sample 16, intracellular beta-lactamase −): 1.2

O=C(O)[C@H]1/C(=C/CO)O[C@@H]2CC(=O)N21 [clavulanic acid]
inhibition of ESBLs (ESBLs): inhibits
inhibition of OSBLs [9]: inhibits

Cc1onc(-c2ccccc2Cl)c1C(=O)N[C@@H]1C(=O)N2[C@@H]1SC(C)(C)[C@@H]2C(=O)O [cloxacillin]
inhibition of class A beta-lactamases (class A beta-lactamases): inhibits
inhibition of class C beta-lactamases (class C beta-lactamases): inhibits
